Patent US10265331B2, “Prevention or treatment agent for hepatic fibrosis” (priority 2012, dated 2019)

Experiments:
CBP/β-catenin = CBP/β-catenin (Homo sapiens, UniProt Q92793); details: reporter assay of WO 2009/148192; cited from earlier work
[1] = test system: chronic hepatitis C model mouse (Cre/loxP/HCV-MxCre Tg mouse); assay: Treatment effect on hepatic fibrosis by histological staining of liver of model mouse; format: in vivo
Method: The expression of Cre in the liver of these mice was induced by intraperitoneal injection of polyinosinic-polycytidylic acid [Poly(I:C)] (purchased from GE Healthcare UK Ltd. (Buckinghamshire, England)). That is, 300 μL of poly(I:C) solution (1 mg/mL phosphate buffered saline [PBS]) was intraperitoneally injected, after lapse of 2 months from birth, […] 3 times at 48 hr intervals. HCV gene expression can be induced in almost all hepatocytes by performing this poly(I:C) administration operation once.
A CBP/β-catenin inhibitor was intraperitoneally administered to the CN2-29^(+/−)/MxCre^(+/−) mouse obtained in Example 1, and whether the CBP/β-catenin inhibitor has a treatment effect on hepatic fibrosis was examined by histological staining of the hepatic tissues collected from the model mouse.
A CBP/β-catenin inhibitor was dissolved in commercially available PBS (pH 7.6), and the pH was adjusted again to 7.6 with an aqueous sodium hydroxide solution to give a 40 mg/ml CBP/β-catenin inhibitor solution. This solution (250 μl) was filled in an osmotic pressure pump (ALZET mini-osmotic pump model 2006) and embedded subcutaneously in the back of mouse, whereby a CBP/β-catenin inhibitor was administered at 0.15 μl/hr for 42 days in a sustained manner. For the control group, commercially available PBS (pH7.6) was similarly filled in an osmotic pressure pump and administered as a vehicle by embedding same subcutaneously in the back of mouse.
Autopsy was performed on day 42 from the administration of the CBP/β-catenin inhibitory compound of (1), the liver was removed and histologically searched.
As for staining, the whole image of the tissue was stained and observed by hematoxylin-eosin staining (HE staining), and fiber was stained and observed by silver staining and Azan staining.
A tissue sample was fixed with 4% para-formaldehyde in PBS, embedded in paraffin and sliced (thickness 4 μm). The obtained section was subjected to hematoxylin-eosin staining (HE), silver staining and Azan staining.
Hematoxylin-eosin staining was performed according to the method described in a handbook of histopathological staining (Kiyoyuki Takahashi, Igaku-Shoin).
Silver staining was performed according to the method described in a handbook of histopathological staining (Kiyoyuki Takahashi, Igaku-Shoin).
Azan staining was performed according to the method described in a handbook of histopathological staining (Kiyoyuki Takahashi, Igaku-Shoin).

Chain of CBP/β-catenin (Q92793 whole entry): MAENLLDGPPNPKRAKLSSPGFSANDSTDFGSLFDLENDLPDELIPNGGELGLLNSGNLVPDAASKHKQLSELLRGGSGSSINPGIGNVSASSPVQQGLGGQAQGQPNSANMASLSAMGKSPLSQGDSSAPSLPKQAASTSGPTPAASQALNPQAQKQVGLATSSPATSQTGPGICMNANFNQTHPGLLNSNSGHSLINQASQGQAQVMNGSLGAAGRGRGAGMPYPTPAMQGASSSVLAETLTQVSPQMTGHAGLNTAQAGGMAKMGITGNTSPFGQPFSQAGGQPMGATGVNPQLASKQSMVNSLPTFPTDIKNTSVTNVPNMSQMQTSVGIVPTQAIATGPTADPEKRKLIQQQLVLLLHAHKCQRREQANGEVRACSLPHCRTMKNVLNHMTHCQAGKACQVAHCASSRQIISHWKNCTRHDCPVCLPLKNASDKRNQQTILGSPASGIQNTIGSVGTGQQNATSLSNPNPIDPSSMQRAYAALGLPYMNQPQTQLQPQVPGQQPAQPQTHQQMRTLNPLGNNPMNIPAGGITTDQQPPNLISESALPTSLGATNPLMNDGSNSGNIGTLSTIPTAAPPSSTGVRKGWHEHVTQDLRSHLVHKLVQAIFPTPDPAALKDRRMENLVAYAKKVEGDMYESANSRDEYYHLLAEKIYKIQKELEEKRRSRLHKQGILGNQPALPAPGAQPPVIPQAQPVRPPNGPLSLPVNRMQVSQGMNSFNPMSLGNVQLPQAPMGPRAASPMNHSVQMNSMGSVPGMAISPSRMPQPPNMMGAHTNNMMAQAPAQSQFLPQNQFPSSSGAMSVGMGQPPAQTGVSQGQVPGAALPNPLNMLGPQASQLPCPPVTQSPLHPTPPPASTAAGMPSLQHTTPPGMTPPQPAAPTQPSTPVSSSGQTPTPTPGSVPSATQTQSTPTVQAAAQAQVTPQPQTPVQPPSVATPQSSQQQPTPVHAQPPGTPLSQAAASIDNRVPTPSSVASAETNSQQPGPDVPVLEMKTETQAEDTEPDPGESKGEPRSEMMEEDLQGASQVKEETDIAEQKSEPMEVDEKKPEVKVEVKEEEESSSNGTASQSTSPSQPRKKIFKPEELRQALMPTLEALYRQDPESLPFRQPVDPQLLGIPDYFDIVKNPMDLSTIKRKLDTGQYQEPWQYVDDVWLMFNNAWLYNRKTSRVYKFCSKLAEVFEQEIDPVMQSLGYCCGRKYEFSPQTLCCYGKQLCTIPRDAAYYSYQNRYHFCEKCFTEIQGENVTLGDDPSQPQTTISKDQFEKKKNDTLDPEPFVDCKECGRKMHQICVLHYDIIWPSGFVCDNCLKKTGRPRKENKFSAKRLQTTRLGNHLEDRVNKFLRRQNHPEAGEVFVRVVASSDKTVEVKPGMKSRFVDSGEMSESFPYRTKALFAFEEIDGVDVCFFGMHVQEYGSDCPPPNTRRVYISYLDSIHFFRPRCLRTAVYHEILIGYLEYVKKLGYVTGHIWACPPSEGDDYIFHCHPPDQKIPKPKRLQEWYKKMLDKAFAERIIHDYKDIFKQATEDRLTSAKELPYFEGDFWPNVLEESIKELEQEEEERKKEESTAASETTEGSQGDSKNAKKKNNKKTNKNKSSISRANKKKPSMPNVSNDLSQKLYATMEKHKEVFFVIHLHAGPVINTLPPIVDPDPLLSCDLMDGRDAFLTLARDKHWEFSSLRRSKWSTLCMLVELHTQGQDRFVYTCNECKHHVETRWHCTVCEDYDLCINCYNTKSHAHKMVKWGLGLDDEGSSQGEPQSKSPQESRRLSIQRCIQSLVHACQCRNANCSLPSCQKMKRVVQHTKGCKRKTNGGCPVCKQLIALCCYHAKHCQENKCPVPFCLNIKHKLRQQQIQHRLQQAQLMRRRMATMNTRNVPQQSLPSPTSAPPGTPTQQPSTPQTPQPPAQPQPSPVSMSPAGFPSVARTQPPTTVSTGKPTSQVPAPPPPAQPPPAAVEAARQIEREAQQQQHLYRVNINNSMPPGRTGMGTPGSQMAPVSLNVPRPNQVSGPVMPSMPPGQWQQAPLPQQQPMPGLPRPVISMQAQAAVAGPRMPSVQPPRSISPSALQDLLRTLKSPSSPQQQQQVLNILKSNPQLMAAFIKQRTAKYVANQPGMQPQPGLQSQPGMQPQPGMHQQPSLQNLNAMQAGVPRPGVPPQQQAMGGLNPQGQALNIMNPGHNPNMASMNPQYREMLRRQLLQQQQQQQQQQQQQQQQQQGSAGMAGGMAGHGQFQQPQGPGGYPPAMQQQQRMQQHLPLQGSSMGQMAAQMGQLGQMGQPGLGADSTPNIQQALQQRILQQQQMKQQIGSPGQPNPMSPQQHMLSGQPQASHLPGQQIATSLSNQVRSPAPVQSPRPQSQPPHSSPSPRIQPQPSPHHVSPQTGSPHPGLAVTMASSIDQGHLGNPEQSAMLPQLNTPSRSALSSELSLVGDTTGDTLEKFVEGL

SMILES: C[C@H]1C2N(C(=O)CN(C)N2C(=O)NCc2ccccc2)[C@@H](Cc2ccc(OP(=O)(O)O)cc2)C(=O)N1Cc1cccc2cccnc12 (stereo partly drawn) [CBP/β-catenin inhibitory compound, 4-(((6S,9S)-1-(benzylcarbamoyl)-2,9-dimethyl-4,7-dioxo-8-(quinolin-8-ylmethyl)octahydro-1H-pyrazino[2,1-c][1,2,4]triazin-6-yl)methyl)phenyl dihydrogen phosphate]
- CBP/β-catenin inhibitory action (CBP/β-catenin): confirmed
- hepatic lobule structure (defibrosing action) ([1]; CN2-29(+/-)/MxCre(+/-) mouse, 40 mg/ml solution by subcutaneous osmotic pump, 0.15 μl/hr for 42 days, HE, silver and Azan staining (FIG. 2-4)): improved hepatic lobule structure
- hepatocyte cord structure of liver tissue, hematoxylin-eosin staining ([1]; administration for 42 days, FIG. 2): normalized to take a cord-like form
- staining of reticular fiber, silver staining ([1]; administration for 42 days, FIG. 3): weakened and normalized
- staining of collagenous fibers, Azan staining ([1]; administration for 42 days, FIG. 4): normalized
